Results reported in article PMC11266321 (EJNMMI Radiopharmacy and Chemistry, 2024).

Tests used:
[1] = system: Glycine (strychnine site); type: binding; details: 10 µM; radioligand [^3H]Strychine; mean of duplicate
Histamine H2 = biological target: T1, Histamine H2 (Homo sapiens, UniProt P25021); experiment: Radioligand binding inhibition, Histamine H2; details: 10 µM; radioligand [^125I]Iodoaminopotentidine; mean of duplicate
T1 construct: Sekisui Medical (contract laboratory)
Experimental: (§1) Interaction of MMP with 28 binding sites was examined, including major classes of neurotransmitter receptor, uptake system, and ion channels (Sekisui Medical, Naka, Japan). MMP was tested in all assays at 10 µM. […] 10.2.3 (GraphPad Software, San Diego, CA). Each determination was made in duplicate.
(§2) Test substance concentration : 10 µM, positive substance concentration : 10 µM
(§3) Data are expressed as the mean values of duplicate samples.
(§4) The % inhibition was calculated from “100 – binding ratio”.
(§5) Binding ratio: [(B - N) / (B0 - N)] × 100 (%)
(§6) B: Bound radioactivity in the presence of test substance and positive substance (individual value)
(§7) B0: Total bound radioactivity in the absence of test substance and positive substance (mean value)
(§8) N: Non-specific bound radioactivity (mean value)

[2] = biological target: T2, Glutamate (NMDA glycine site) (Homo sapiens, UniProt Q05586); experiment: Radioligand binding inhibition, Glutamate NMDA glycine site; details: 10 µM; radioligand [^3H]MDL105,519; mean of duplicate
T2 construct: Sekisui Medical (contract laboratory)
Experimental: as §1, §2, §3, §4, §5, §6, §7, §8

Glutamate (AMPA) = experiment: Radioligand binding inhibition, Glutamate AMPA; details: 10 µM; radioligand [^3H]AMPA; mean of duplicate
Experimental: as §1, §2, §3, §4, §5, §6, §7, §8

[3] = system: Glutamate (NMDA phencyclidine site); experiment: Radioligand binding inhibition, Glutamate NMDA phencyclidine site; details: 10 µM; radioligand [^3H]MK-801; mean of duplicate
Experimental: as §1, §2, §3, §4, §5, §6, §7, §8

GABA A (agonist site) = experiment: Radioligand binding inhibition, GABA A agonist site; details: 10 µM; radioligand [^3H]Muscimol; mean of duplicate
Experimental: as §1, §2, §3, §4, §5, §6, §7, §8

[4] = system: β-Adrenergic (non-selective); experiment: Radioligand binding inhibition, β-Adrenergic; details: 10 µM; radioligand [^3H]DHA; mean of duplicate
Experimental: as §1, §2, §3, §4, §5, §6, §7, §8

Dopamine D2 = biological target: T3, Dopamine D2 (Homo sapiens, UniProt P14416); experiment: Radioligand binding inhibition, Dopamine D2; details: 10 µM; radioligand [^3H]Spiperone; mean of duplicate
T3 construct: Sekisui Medical (contract laboratory)
T3 sequence (P14416 whole entry): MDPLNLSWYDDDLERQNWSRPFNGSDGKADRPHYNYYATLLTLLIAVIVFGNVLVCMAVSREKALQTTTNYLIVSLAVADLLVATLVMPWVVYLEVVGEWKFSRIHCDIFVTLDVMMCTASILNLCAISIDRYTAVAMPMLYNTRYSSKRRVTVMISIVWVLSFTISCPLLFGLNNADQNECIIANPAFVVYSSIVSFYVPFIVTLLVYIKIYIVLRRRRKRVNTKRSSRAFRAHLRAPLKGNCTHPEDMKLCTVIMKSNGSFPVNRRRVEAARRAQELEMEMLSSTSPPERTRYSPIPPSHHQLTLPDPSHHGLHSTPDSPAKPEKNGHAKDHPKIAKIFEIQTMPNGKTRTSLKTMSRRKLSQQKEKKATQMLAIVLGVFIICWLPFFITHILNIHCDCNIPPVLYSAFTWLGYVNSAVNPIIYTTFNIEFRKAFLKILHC
Experimental: as §1, §2, §3, §4, §5, §6, §7, §8

[5] = system: α2-Adrenergic (non-selective); experiment: Radioligand binding inhibition, α2-Adrenergic; details: 10 µM; radioligand [^3H]Rauwolscine; mean of duplicate
Experimental: as §1, §2, §3, §4, §5, §6, §7, §8

Serotonin 5HT2A = biological target: T4, Serotonin 5HT2A (Homo sapiens, UniProt P28223); experiment: Radioligand binding inhibition, Serotonin 5HT2A; details: 10 µM; radioligand [^3H]Ketanserin; mean of duplicate
T4 construct: Sekisui Medical (contract laboratory that ran the panel)
T4 sequence (P28223 whole entry): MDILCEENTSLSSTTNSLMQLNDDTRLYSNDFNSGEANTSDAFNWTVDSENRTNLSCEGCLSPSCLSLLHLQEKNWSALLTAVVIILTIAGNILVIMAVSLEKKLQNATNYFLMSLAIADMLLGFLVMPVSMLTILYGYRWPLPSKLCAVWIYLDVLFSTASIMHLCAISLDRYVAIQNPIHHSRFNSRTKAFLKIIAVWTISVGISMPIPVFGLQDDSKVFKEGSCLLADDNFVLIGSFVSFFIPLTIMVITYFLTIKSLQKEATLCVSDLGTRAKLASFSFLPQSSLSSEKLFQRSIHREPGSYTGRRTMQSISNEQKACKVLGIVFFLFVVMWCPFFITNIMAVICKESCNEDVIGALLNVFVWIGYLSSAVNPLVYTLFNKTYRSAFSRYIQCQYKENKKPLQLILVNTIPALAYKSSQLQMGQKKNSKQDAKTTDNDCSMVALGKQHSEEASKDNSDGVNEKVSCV
Experimental: as §1, §2, §3, §4, §5, §6, §7, §8

Glutamate (Ketamine) = experiment: Radioligand binding inhibition, Glutamate (Ketamine); details: 10 µM; radioligand [^3H]Kainic acid; mean of duplicate
GABA A (BZ central) = experiment: Radioligand binding inhibition, GABA A BZ central; details: 10 µM; radioligand [^3H]Flunitrazepam; mean of duplicate
Experimental: as §1, §2, §3, §4, §5, §6, §7, §8

Nicotinic (neuronal) = type: binding; details: 10 µM; radioligand [^3H]Cytisine; mean of duplicate
Opiate (non-selective) = experiment: Radioligand binding inhibition, Opiate; details: 10 µM; radioligand [^3H]Naloxone; mean of duplicate
Experimental: as §1, §2, §3, §4, §5, §6, §7, §8

Serotonin 5HT1A = biological target: T5, Serotonin 5HT1A (Homo sapiens, UniProt P08908); experiment: Radioligand binding inhibition, Serotonin 5HT1A; details: 10 µM; radioligand [^3H]8-OH DPAT; mean of duplicate
T5 construct: Sekisui Medical (contract laboratory)
T5 sequence (P08908 whole entry): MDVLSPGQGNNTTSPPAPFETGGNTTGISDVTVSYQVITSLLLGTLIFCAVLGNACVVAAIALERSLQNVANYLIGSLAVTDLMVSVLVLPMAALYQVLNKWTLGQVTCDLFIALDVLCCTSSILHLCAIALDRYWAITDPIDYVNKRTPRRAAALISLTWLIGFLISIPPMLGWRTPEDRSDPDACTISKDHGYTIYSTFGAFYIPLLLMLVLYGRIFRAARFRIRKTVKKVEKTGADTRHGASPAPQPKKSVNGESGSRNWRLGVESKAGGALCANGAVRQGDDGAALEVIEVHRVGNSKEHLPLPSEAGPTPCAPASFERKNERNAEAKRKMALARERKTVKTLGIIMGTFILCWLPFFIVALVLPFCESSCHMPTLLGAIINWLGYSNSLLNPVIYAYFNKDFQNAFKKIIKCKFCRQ
Experimental: as §1, §2, §3, §4, §5, §6, §7, §8

[6] = system: Glutamate (non-selective); experiment: Radioligand binding inhibition, Glutamate non-selective; details: 10 µM; radioligand [^3H]Glutamic acid; mean of duplicate
Experimental: as §1, §2, §3, §4, §5, §6, §7, §8

[7] = system: Glutamate (NMDA agonist site); experiment: Radioligand binding inhibition, Glutamate NMDA agonist site; details: 10 µM; radioligand [^3H]CGP-39653; mean of duplicate
Experimental: as §1, §2, §3, §4, §5, §6, §7, §8

Serotonin 5HT3 (human) = biological target: T6, Serotonin 5HT3 (human) (Homo sapiens, UniProt P46098); experiment: Radioligand binding inhibition, Serotonin 5HT3; details: 10 µM; radioligand [^3H]GR65630; mean of duplicate
T6 construct: Sekisui Medical (contract laboratory that ran the panel)
T6 sequence (P46098 24-478): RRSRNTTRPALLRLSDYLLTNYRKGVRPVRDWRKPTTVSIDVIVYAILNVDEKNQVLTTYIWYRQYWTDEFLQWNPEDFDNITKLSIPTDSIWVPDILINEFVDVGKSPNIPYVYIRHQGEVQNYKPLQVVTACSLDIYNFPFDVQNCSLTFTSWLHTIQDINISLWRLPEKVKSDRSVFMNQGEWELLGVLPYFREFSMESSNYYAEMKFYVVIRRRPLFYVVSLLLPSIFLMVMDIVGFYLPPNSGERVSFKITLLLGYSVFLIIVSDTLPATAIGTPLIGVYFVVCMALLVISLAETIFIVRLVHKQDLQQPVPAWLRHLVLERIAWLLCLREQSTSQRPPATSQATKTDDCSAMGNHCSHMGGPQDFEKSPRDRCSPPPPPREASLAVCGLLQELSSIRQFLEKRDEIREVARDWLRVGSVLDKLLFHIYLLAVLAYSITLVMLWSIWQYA
Experimental: as §1, §2, §3, §4, §5, §6, §7, §8

T1 sequence (P25021 whole entry): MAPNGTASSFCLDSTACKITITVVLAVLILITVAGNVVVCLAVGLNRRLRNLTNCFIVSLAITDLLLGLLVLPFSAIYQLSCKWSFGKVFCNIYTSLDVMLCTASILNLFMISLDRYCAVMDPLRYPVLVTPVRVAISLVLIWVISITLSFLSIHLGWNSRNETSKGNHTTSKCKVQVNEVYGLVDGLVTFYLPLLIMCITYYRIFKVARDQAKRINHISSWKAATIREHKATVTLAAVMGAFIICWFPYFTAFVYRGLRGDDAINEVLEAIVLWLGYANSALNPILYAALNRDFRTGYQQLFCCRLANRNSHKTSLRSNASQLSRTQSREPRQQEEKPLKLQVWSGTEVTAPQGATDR

O=C1C[C@@H]2OCC=C3CN4CC[C@]56c7ccccc7N1[C@H]5[C@H]2[C@H]3C[C@H]46 [Strychnine, reference compound]
Inhibition ratio (%) [1]: 100.00%

CN/C(=N/CCSCc1nc[nH]c1C)NC#N [Cimetidine, reference compound]
Inhibition ratio (%) (Histamine H2): 97.63%

O=C(O)/C(=C/c1c(C(=O)O)[nH]c2cc(Cl)cc(Cl)c12)c1ccccc1 [MDL105,519, reference compound]
Inhibition ratio (%) [2]: 97.35%

Cc1o[nH]c(=O)c1C[C@H](N)C(=O)O [(S)-AMPA, reference compound]
Inhibition ratio (%) (Glutamate (AMPA)): 98.65%

(+)-MK-801 [reference compound]
Inhibition ratio (%) [3]: 100.00%

NCc1cc(=O)[nH]o1 [Muscimol, reference compound]
Inhibition ratio (%) (GABA A (agonist site)): 96.50%

CC(C)NCC(O)COc1cccc2ccccc12 (racemic) [(±)-Propranolol, reference compound]
Inhibition ratio (%) [4]: 97.25%

(+)-Butaclamol [reference compound]
Inhibition ratio (%) (Dopamine D2): 95.06%

COC(=O)[C@@H]1[C@H]2C[C@H]3c4[nH]c5ccccc5c4CCN3C[C@@H]2CC[C@@H]1O [Yohimbine, reference compound]
Inhibition ratio (%) [5]: 89.82%

O=C(c1ccc(F)cc1)C1CCN(CCn2c(=O)[nH]c3ccccc3c2=O)CC1 [Ketanserin, reference compound]
Inhibition ratio (%) (Serotonin 5HT2A): 98.94%

C=C(C)[C@H]1CN[C@H](C(=O)O)[C@H]1CC(=O)O [Kainic acid, reference compound]
Inhibition ratio (%) (Glutamate (Ketamine)): 97.79%

CN1C(=O)CN=C(c2ccccc2)c2cc(Cl)ccc21 [Diazepam, reference compound]
Inhibition ratio (%) (GABA A (BZ central)): 100.00%

(±)-Nicotine [reference compound]
Inhibition ratio (%) (Nicotinic (neuronal)): 95.62%

C=CCN1CC[C@]23c4c5ccc(O)c4O[C@H]2C(=O)CC[C@@]3(O)[C@H]1C5 [Naloxone, reference compound]
Inhibition ratio (%) (Opiate (non-selective)): 96.53%

NCCc1c[nH]c2ccc(O)cc12 [Serotonin, reference compound]
Inhibition ratio (%) (Serotonin 5HT1A): 95.99%

N[C@@H](CCC(=O)O)C(=O)O [L-Glutamic acid, reference compound]
Inhibition ratio (%) [6]: 93.56% | Inhibition ratio (%) [7]: 100.00%

CN1[C@@H]2CC[C@H]1C[C@@H](OC(=O)c1c[nH]c3ccccc13)C2 [Tropisetron, reference compound]
Inhibition ratio (%) (Serotonin 5HT3 (human)): 99.78%
